The values below are quoted from earlier work in the PKSmart pharmacokinetics tables (Seal et al. 2025).

Data set [1] in a line: Lombardo et al. 2013, J Clin Pharmacol 53:178, doi 10.1177/0091270012440282. As to conditions: for Vd / clearance: in vivo, iv; for fraction unbound: plasma.
The nature of data set [2]: Lombardo, Berellini, Obach 2018, Drug Metab Dispos 46:1466, doi 10.1124/dmd.118.082966. As to conditions: human; for MRT / Vd / clearance / half-life: in vivo, iv; for fraction unbound: plasma.

The term Vd denotes the apparent volume that relates the amount in the body to the concentration in plasma or blood. A word on the clearance: it is the volume of plasma or blood freed of the substance per unit of time. As a reminder, the fraction unbound is free concentration divided by total concentration. As usually defined, the MRT is a mean duration of stay, worked out from the concentration-time curve. A word on the half-life: it is the time in which the quantity being followed falls by half. Turning to `c1ccc(C2(N3CCCCC3)CCCCC2)cc1`, in data set [1] (dog), the Vd is 16.6 L/kg, the clearance was 54.1 mL/min/kg and the fraction unbound was 0.43. In data set [1] (monkey), the Vd is 6.78 L/kg, the clearance is 36.6 mL/min/kg and the fraction unbound is 0.314. Further, in data set [1] (rat), the Vd was 12.6 L/kg, the clearance was 66.3 mL/min/kg and the fraction unbound was 0.37. For the same molecule, in data set [2], the MRT was 23 h, the Vd was 6.9 L/kg, the clearance is 5.1 mL/min/kg and the half-life is 16 h.

Take `CN(C)CCc1c[nH]c2ccc(CS(=O)(=O)N3CCCC3)cc12`: in data set [1] (dog), the Vd is 3.98 L/kg, the clearance is 28.5 mL/min/kg and the fraction unbound is 0.73. Besides, in data set [1] (monkey), the Vd was 2.61 L/kg, the clearance is 40 mL/min/kg and the fraction unbound is 0.699. In data set [1] (rat), the Vd was 2.7 L/kg, the clearance was 55.8 mL/min/kg and the fraction unbound is 0.72. Besides, in data set [2], the MRT is 4.2 h, the Vd was 2.2 L/kg, the clearance is 8.9 mL/min/kg and the half-life is 3.4 h. The fraction unbound in data set [2] was 0.6.

Take `COc1cc2c(c(OC)c1OC)-c1ccc(OC)c(=O)cc1[C@@H](NC(C)=O)CC2`: in data set [1] (rat), the Vd is 31.4 L/kg and the clearance is 34.3 mL/min/kg. Further, in data set [2], the MRT is 49 h, the Vd is 6.1 L/kg, the clearance was 2.1 mL/min/kg and the half-life is 58 h.

For the molecule `CC[C@@]1(O)C(=O)OCc2c1cc1n(c2=O)Cc2cc3c(N)cccc3nc2-1`, in data set [1] (rat), the distribution volume (Vd) was 5 L/kg and the clearance was 150 mL/min/kg. Besides, in data set [2], the MRT is 5.6 h, the Vd was 2.2 L/kg, the clearance was 6.5 mL/min/kg and the half-life was 7 h. The fraction unbound in data set [2] is 0.003.

For the molecule `c1ccc2c(c1)OCC(C1=NCCN1)O2` (configuration not stated), in data set [1] (rat), the Vd is 3.1 L/kg and the clearance was 71.2 mL/min/kg. Besides, in data set [2], the MRT was 5.5 h, the Vd is 3.3 L/kg, the clearance was 10 mL/min/kg and the half-life is 4.2 h.

Take `CN1CCN(C2=Nc3cc(Cl)ccc3Nc3ccccc32)CC1`: the Vd in data set [1] (rat) was 8.68 L/kg. Further, in data set [2], the MRT is 11 h, the Vd is 1.6 L/kg and the half-life is 10 h.

For the molecule `CCN(CC)CCNC(=O)c1cc(Cl)c(N)cc1OC`, in data set [1] (dog), the Vd is 1.1 L/kg and the clearance was 23.1 mL/min/kg. In addition, in data set [1] (rat), the distribution volume (Vd) was 3.3 L/kg, the clearance is 48 mL/min/kg and the unbound share (fraction unbound) was 0.426. In data set [2], the MRT is 9.4 h, the Vd was 3.2 L/kg, the clearance is 5.7 mL/min/kg and the half-life is 7.2 h.

On to `NC1(C(=O)O)CC1`, for which the Vd in data set [1] (dog) is 0.7 L/kg; in data set [1] (monkey), 0.72 L/kg; in data set [1] (rat) it was 0.64 L/kg; in data set [2], 0.73 L/kg. Also, the clearance in data set [1] (dog) was 0.4 mL/min/kg; in data set [1] (monkey), 3.1 mL/min/kg; in data set [1] (rat) it was 3.2 mL/min/kg; in data set [2], 1.5 mL/min/kg. Besides, the MRT in data set [2] is 7.8 h. In addition, the half-life in data set [2] is 5.9 h.

In the case of `CCN(CC)C(=O)/C(C#N)=C/c1cc(O)c(O)c([N+](=O)[O-])c1`, in data set [1] (rat), the Vd was 0.24 L/kg and the clearance is 10.8 mL/min/kg. Further, in data set [2], the MRT was 0.38 h, the Vd was 0.27 L/kg and the clearance is 12 mL/min/kg.

As to `COc1ccc(CCNCC(O)COc2cccc(C)c2)cc1OC` (configuration not stated), in data set [1] (dog), the Vd is 4 L/kg, the clearance was 45 mL/min/kg and the fraction unbound was 0.04. Besides, in data set [1] (rat), the fraction unbound is 0.06. In addition, in data set [2], the MRT is 2 h, the Vd was 0.67 L/kg, the clearance is 5.5 mL/min/kg and the half-life was 1.9 h. Also, the fraction unbound in data set [2] is 0.015.

For the molecule `C[C@@H](O)C1C(=O)N2C(C(=O)O)=C(SCCOC(N)=O)S[C@H]12` (some centres not stated), the Vd in data set [1] (dog) is 0.24 L/kg. Moreover, the Vd in data set [1] (monkey) is 0.21 L/kg. Besides, the Vd in data set [1] (rat) is 0.14 L/kg. Moreover, in data set [2], the MRT is 0.67 h, the volume of distribution (Vd) is 0.3 L/kg, the half-life is 0.8 h and the fraction unbound was 0.35.

On to `CC[C@@]1(O)C(=O)OCc2c1cc1n(c2=O)Cc2cc3c(CN(C)C)c(O)ccc3nc2-1`, for which the values for the fraction unbound in data set [1] (monkey), in data set [1] (rat) and in data set [2] were 0.8, 0.747 and 0.65, respectively.

On to `O=c1c(O)c(-c2ccc(O)c(O)c2)oc2cc(O)cc(O)c12`, for which, in data set [1] (rat), the Vd is 0.28 L/kg and the clearance is 116 mL/min/kg. Moreover, in data set [2], the MRT is 0.2 h, the Vd is 0.12 L/kg, the clearance is 11 mL/min/kg and the half-life is 0.6 h. The fraction unbound in data set [2] is 0.009.

For `N[C@@H](CC(=O)N1CCn2c(nnc2C(F)(F)F)C1)Cc1cc(F)c(F)cc1F`, in data set [1] (dog), the Vd is 3.3 L/kg, the clearance was 9.1 mL/min/kg and the fraction unbound is 0.556. Also, in data set [1] (rat), the Vd was 8.1 L/kg, the clearance was 45 mL/min/kg and the fraction unbound was 0.68. In data set [2], the MRT was 7.8 h, the Vd is 2.8 L/kg, the clearance was 6 mL/min/kg and the half-life was 12 h.

Turning to `CC(=O)CC(c1ccccc1)c1c(O)c2ccccc2oc1=O` (configuration not stated), in data set [1] (dog), the Vd was 0.28 L/kg and the clearance was 0.3 mL/min/kg. Besides, in data set [1] (rat), the Vd was 0.24 L/kg, the clearance is 0.17 mL/min/kg and the fraction unbound was 0.405. Moreover, in data set [2], the MRT is 39 h and the Vd was 0.13 L/kg.
